≈ marks a conversion by molar mass, not a printed value.
How the values were obtained:
Type in all cases: functional
[1] = test system: Staphylococcus aureus; experiment: Antibacterial activity against Staphylococcus aureus
[2] = test system: Aspergillus fumigatus; experiment: Antifungal activity against Aspergillus fumigatus
[3] = test system: Cryptococcus neoformans; experiment: Antifungal activity against Cryptococcus neoformans

CC(C)=CCc1cc(-c2coc3cc(O)ccc3c2=O)ccc1O [NEOBAVAISOFLAVONE]
MIC [1]: 3.2 µg/mL (≈ 9.93 µM) | MIC [2]: 50 µg/mL (≈ 155 µM) | MIC [3]: 50 µg/mL (≈ 155 µM)

From ChEMBL document CHEMBL1148050, “Sigmoidins J and K, two new prenylated isoflavonoids from Erythrina sigmoidea” (1994)
